For one assay, the system named is SaS tumours. Kind of assay: Induction of necrosis in SaS tumours. Format: in vivo. The note with it: SaS tumour-bearing mice, tumours excised after 24 h, mean score 1-10 by area of necrosis. On the procedure:
Mice bearing either CaNT or SaS tumours were treated with the test compound and tumours excised after 24 h, fixed in formalin, embedded in paraffin, sectioned and stained with haematoxylin and eosin. Sections were scored based on area of necrosis as follows:
In this assay the effect of a given dose of either a vascular damaging agent or a nitric oxide synthase inhibitor administered alone can be compared with the effect of a combination of the two agents.

The test system of the next assay is CaNT tumours. As to the kind of experiment: Tumour functional vascular volume measured by fluorescent dye Hoechst 33342. Format: in vivo. The note with it: CaNT tumour-bearing mice; CA4P 25 mg/kg alone, intra peritoneal; 24 hours after treatment. The method, then:
Activity Against Tumour Vasculature Measured by Fluorescent Dye.
Tumour functional vascular volume in CaNT tumour-bearing mice was measured using the fluorescent dye Hoechst 33342 according to the method of Smith et al (Brit J Cancer 57, 247–253, 1988). The fluorescent dye was dissolved in saline at 6.25 mg/ml and injected intravenously at 10 mg/kg 24 hours after intra peritoneal drug treatment. One minute later, animals were killed and tumours excised and frozen; 10 μm sections were cut at 3 different levels and observed under UV illumination using an Olympus microscope equipped with epifluorescence. Blood vessels were identified by their fluorescent outlines and vascular volume was quantified using a point scoring system based on that described by Chalkley, (J Natl Cancer Inst, 4, 47–53, 1943). All estimates were based on counting a minimum of 100 fields from sections cut at the 3 different levels.

SMILES strings stand for the structures.

On to `Cc1ccnc(N)c1` [AMP, 2-amino-4-methylpyridine], for which the “Necrosis score ± SEM (n)” value in the assay on SaS tumours (AMP 10 mg/kg alone) was 1.0.

In the case of `COc1ccc(/C=C\c2cc(OC)c(OC)c(OC)c2)cc1OP(=O)(O)O` [CA4P, Combretastatin A4 phosphate], the “Vascular Volume % ± SEM (n)” value in the assay on CaNT tumours was 1.03 ± 0.14 (4) %. In addition, the “Necrosis score ± SEM (n)” value with SaS tumours (CA4P 500 mg/kg alone) is on record as 1.7 ± 0.7.
